Data taken from PubChem BioAssay (NCI).
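Tested at 5 concentrations; 48 h exposure; 96-well plates; endpoints linearly interpolated, else capped at highest concentration. GI50 is the concentration that inhibits growth by half. The concentration for full growth arrest is given as TGI.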

Legend:
Experiment in all cases: DTP human tumour cell line panel, 48 h
786-0 renal = test system: 786-0 renal
A498 renal = test system: A498 renal
A549 NSCLC = test system: A549 NSCLC
ACHN renal = test system: ACHN renal
BT-549 breast = test system: BT-549 breast
CAKI-1 renal = test system: CAKI-1 renal
CCRF-CEM leukemia = test system: CCRF-CEM leukemia
COLO 205 colon = test system: COLO 205 colon
DU-145 prostate = test system: DU-145 prostate
EKVX NSCLC = test system: EKVX NSCLC
HCC-2998 colon = test system: HCC-2998 colon
HCT-116 colon = test system: HCT-116 colon
HCT-15 colon = test system: HCT-15 colon
HL-60(TB) leukemia = test system: HL-60(TB) leukemia
HOP-62 NSCLC = test system: HOP-62 NSCLC
HOP-92 NSCLC = test system: HOP-92 NSCLC
HS 578T breast = test system: HS 578T breast
HT29 colon = test system: HT29 colon
IGROV1 ovarian = test system: IGROV1 ovarian
K-562 leukemia = test system: K-562 leukemia
KM12 colon = test system: KM12 colon
LOX IMVI melanoma = test system: LOX IMVI melanoma
M14 melanoma = test system: M14 melanoma
MALME-3M melanoma = test system: MALME-3M melanoma
MCF7 breast = test system: MCF7 breast
MDA-MB-231 breast = test system: MDA-MB-231 breast
MDA-MB-435 = test system: MDA-MB-435
MOLT-4 leukemia = test system: MOLT-4 leukemia
NCI-H226 lung = test system: NCI-H226 lung
NCI-H23 lung = test system: NCI-H23 lung
NCI-H460 lung = test system: NCI-H460 lung
NCI-H522 lung = test system: NCI-H522 lung
NCI/ADR-RES ovarian = test system: NCI/ADR-RES ovarian
OVCAR-3 ovarian = test system: OVCAR-3 ovarian
OVCAR-4 ovarian = test system: OVCAR-4 ovarian
OVCAR-5 ovarian = test system: OVCAR-5 ovarian
OVCAR-8 ovarian = test system: OVCAR-8 ovarian
PC-3 prostate = test system: PC-3 prostate
RPMI-8226 leukemia = test system: RPMI-8226 leukemia
RXF 393 renal = test system: RXF 393 renal
SF-268 CNS = test system: SF-268 CNS
SF-295 CNS = test system: SF-295 CNS
SF-539 CNS = test system: SF-539 CNS
SK-MEL-2 melanoma = test system: SK-MEL-2 melanoma
SK-MEL-28 melanoma = test system: SK-MEL-28 melanoma
SK-MEL-5 melanoma = test system: SK-MEL-5 melanoma
SK-OV-3 ovarian = test system: SK-OV-3 ovarian
SN12C renal = test system: SN12C renal
SNB-19 CNS = test system: SNB-19 CNS
SNB-75 CNS = test system: SNB-75 CNS
SR leukemia = test system: SR leukemia
SW-620 colon = test system: SW-620 colon
T-47D breast = test system: T-47D breast
TK-10 renal = test system: TK-10 renal
U251 CNS = test system: U251 CNS
UACC-257 melanoma = test system: UACC-257 melanoma
UACC-62 melanoma = test system: UACC-62 melanoma
UO-31 renal = test system: UO-31 renal
MDA-N = test system: MDA-N

## Cn1cc(CNCC2CCN(c3ncc(C(=O)NO)cn3)CC2)c2ccccc21
786-0 renal
  GI50: 41.4 nM
  TGI: 8890 nM
A498 renal
  GI50: 10.2 nM
  TGI: 27.4 nM
A549 NSCLC
  GI50: 12.3 nM
  TGI: 519 nM
ACHN renal
  GI50: 22.9 nM
  TGI: 96.2 nM
BT-549 breast
  GI50: 225 nM
  TGI: 14300 nM
CAKI-1 renal
  GI50: 23.3 nM
  TGI: 169 nM
CCRF-CEM leukemia
  GI50: < 11.6 nM
  TGI: 49300 nM
COLO 205 colon
  GI50: < 10.4 nM
  TGI: 107 nM
DU-145 prostate
  GI50: 12.4 nM
  TGI: 4410 nM
EKVX NSCLC
  GI50: 25.5 nM
  TGI: 23400 nM
HCC-2998 colon
  GI50: 14.1 nM
  TGI: 83.7 nM
HCT-116 colon
  GI50: < 10 nM
  TGI: 32.8 nM
HCT-15 colon
  GI50: 144 nM
  TGI: 15800 nM
HL-60(TB) leukemia
  GI50: 24.2 nM
  TGI: 17500 nM
HOP-62 NSCLC
  GI50: 12.8 nM
  TGI: 838 nM
HOP-92 NSCLC
  GI50: < 10.7 nM
  TGI: 39.9 nM
HS 578T breast
  GI50: 18.5 nM
  TGI: 42600 nM
HT29 colon
  GI50: < 10 nM
  TGI: 587 nM
IGROV1 ovarian
  GI50: 24.5 nM
  TGI: 352 nM
K-562 leukemia
  GI50: < 12 nM
  TGI: > 46900 nM
KM12 colon
  GI50: 21.5 nM
  TGI: 589 nM
LOX IMVI melanoma
  GI50: 11.7 nM
  TGI: 32.5 nM
M14 melanoma
  GI50: 11.4 nM
  TGI: 1250 nM
MALME-3M melanoma
  GI50: < 10 nM
  TGI: 15200 nM
MCF7 breast
  GI50: < 10 nM
  TGI: 2530 nM
MDA-MB-231 breast
  GI50: 40 nM
  TGI: 5580 nM
MDA-MB-435
  GI50: 12 nM
  TGI: 123 nM
MOLT-4 leukemia
  GI50: < 13.5 nM
  TGI: > 52700 nM
NCI-H226 lung
  GI50: 35.1 nM
  TGI: 1090 nM
NCI-H23 lung
  GI50: 21.8 nM
  TGI: 436 nM
NCI-H460 lung
  GI50: 13.1 nM
  TGI: 11500 nM
NCI-H522 lung
  GI50: < 10 nM
  TGI: 61.5 nM
NCI/ADR-RES ovarian
  GI50: 107 nM
  TGI: 5590 nM
OVCAR-3 ovarian
  GI50: 15.8 nM
  TGI: 126 nM
OVCAR-4 ovarian
  GI50: 15.5 nM
  TGI: 52100 nM
OVCAR-5 ovarian
  GI50: < 10 nM
  TGI: 598 nM
OVCAR-8 ovarian
  GI50: < 10 nM
PC-3 prostate
  GI50: 12 nM
  TGI: 18000 nM
RPMI-8226 leukemia
  GI50: < 10 nM
  TGI: 40500 nM
RXF 393 renal
  GI50: < 10.7 nM
  TGI: 38.5 nM
SF-268 CNS
  GI50: 25.9 nM
  TGI: 896 nM
SF-295 CNS
  GI50: 16.9 nM
  TGI: 188 nM
SF-539 CNS
  GI50: 21 nM
  TGI: 13400 nM
SK-MEL-2 melanoma
  GI50: < 15.1 nM
  TGI: 334 nM
SK-MEL-28 melanoma
  GI50: 12.2 nM
  TGI: 102 nM
SK-MEL-5 melanoma
  GI50: < 10.8 nM
  TGI: 30.7 nM
SK-OV-3 ovarian
  GI50: 19.9 nM
  TGI: 361 nM
SN12C renal
  GI50: 34.4 nM
  TGI: 15700 nM
SNB-19 CNS
  GI50: 25.1 nM
  TGI: 900 nM
SNB-75 CNS
  GI50: < 10.8 nM
  TGI: 8620 nM
SR leukemia
  GI50: < 12.4 nM
  TGI: > 53900 nM
SW-620 colon
  GI50: 14.7 nM
  TGI: 2110 nM
T-47D breast
  GI50: < 10 nM
  TGI: 543 nM
TK-10 renal
  GI50: < 10.7 nM
  TGI: 68.3 nM
U251 CNS
  GI50: 13.3 nM
  TGI: 128 nM
UACC-257 melanoma
  GI50: 11.9 nM
  TGI: 363 nM
UACC-62 melanoma
  GI50: 11.8 nM
  TGI: 41.5 nM
UO-31 renal
  GI50: 24.7 nM
  TGI: 447 nM

## COc1cc(/C=C2\CCC(C)C3=C2NC(=S)NC3c2cc(OC)c(OC)c(OC)c2)cc(OC)c1OC (stereo unspecified)
786-0 renal
  TGI: > 100000 nM
A498 renal
  TGI: > 100000 nM
A549 NSCLC
  TGI: > 100000 nM
ACHN renal
  TGI: > 100000 nM
CAKI-1 renal
  TGI: > 100000 nM
CCRF-CEM leukemia
  TGI: > 100000 nM
DU-145 prostate
  TGI: > 100000 nM
EKVX NSCLC
  TGI: > 100000 nM
HCT-116 colon
  TGI: > 100000 nM
HCT-15 colon
  TGI: > 100000 nM
HL-60(TB) leukemia
  TGI: 39700 nM
HOP-62 NSCLC
  TGI: > 100000 nM
HOP-92 NSCLC
  TGI: > 100000 nM
HS 578T breast
  TGI: > 100000 nM
HT29 colon
  TGI: > 100000 nM
IGROV1 ovarian
  TGI: > 100000 nM
K-562 leukemia
  TGI: > 100000 nM
KM12 colon
  TGI: > 100000 nM
LOX IMVI melanoma
  TGI: > 100000 nM
M14 melanoma
  TGI: > 100000 nM
MCF7 breast
  TGI: > 100000 nM
MDA-MB-231 breast
  TGI: > 100000 nM
MDA-MB-435
  TGI: > 100000 nM
MDA-N
  TGI: > 100000 nM
MOLT-4 leukemia
  TGI: 92400 nM
OVCAR-4 ovarian
  TGI: > 100000 nM
OVCAR-5 ovarian
  TGI: > 100000 nM
OVCAR-8 ovarian
  TGI: > 100000 nM
PC-3 prostate
  TGI: > 100000 nM
RPMI-8226 leukemia
  TGI: 68400 nM
RXF 393 renal
  TGI: > 100000 nM
SF-268 CNS
  TGI: > 100000 nM
SK-MEL-2 melanoma
  TGI: > 100000 nM
SK-MEL-28 melanoma
  TGI: > 100000 nM
SK-MEL-5 melanoma
  TGI: 59000 nM
SK-OV-3 ovarian
  TGI: > 100000 nM
SN12C renal
  TGI: > 100000 nM
SNB-19 CNS
  TGI: > 100000 nM
SNB-75 CNS
  TGI: 66300 nM
SR leukemia
  TGI: > 100000 nM
SW-620 colon
  TGI: > 100000 nM
TK-10 renal
  TGI: > 100000 nM
U251 CNS
  TGI: > 100000 nM
UACC-257 melanoma
  TGI: > 100000 nM
UACC-62 melanoma
  TGI: > 100000 nM
UO-31 renal
  TGI: 66000 nM
